*1 amine or outer side, *2 acyl side, *3 side chain or, on linkers, in order; H or OH if unused. Where a SMILES comes first, the peptide text is derived from it. Bridges are numbered along the chain shown (N, C = ends). [ ]: non-standard residue; d: D form. The star is where a group is joined. ξ: configuration not given here. pTerphenylCO(4''-OnC5H11) = CCCCCOc1ccc(-c2ccc(-c3ccc(C(=O)*)cc3)cc2)cc1; ξOrn(4,5-diOH) = O=C(C(CC(O)C(O)N[*:3])N[*:1])[*:2]; ξhTyr(βξ-OH,γξ-OH) = NC(C(=O)O)C(O)C(O)c1ccc(O)cc1; ξPro(3ξ-OH,4ξ-Me) = CC1CNC(C(=O)O)C1O; Hyp = O=C(O)[CH]1C[CH](O)CN1
How the values were obtained:
[1] = Solubility studies of Com 6(a) in surfactant test solutions, reverse phase HPLC; type: physicochemical; details: room temperature
Method: Solubility studies were performed at room temperature by transferring 5 ml of test solution (surfactant in water optionally containing a bulking agent, a buffer or a stabilizing agent) and 50 mg of Com 6(a) into a glass test tube. The test tubes were agitated overnight and examined for excess solid. Test tubes containing excess solid were removed for analysis. […] All samples were allowed to stand 1 h, supernatant was removed, filtered and analyzed by reverse phase HPLC to determine the potency of Com 6(a) per Ml of solution.

[2] = Stability of freeze-dried formulations, related substances by reverse phase HPLC, storage at 40° C.; type: physicochemical
Method: The stability of solution and freeze-dried formulations was evaluated by monitoring a sample of the formulation for the percent increase in related substances by reverse phase HPLC at initial, 2 weeks and 4 weeks of storage at 40° C.

CCCCCOc1ccc(-c2ccc(-c3ccc(C(=O)NC4CC(O)C(O)NC(=O)C5C(O)C(C)CN5C(=O)C(C(C)O)NC(=O)C(C(O)C(O)c5ccc(O)cc5)NC(=O)C5CC(O)CN5C(=O)C(C(C)O)NC4=O)cc3)cc2)cc1 (stereo not drawn) [Compound 6(a)] ({pTerphenylCO(4''-OnC5H11)}-[ξOrn(4,5-diOH)]T[Hyp][ξhTyr(βξ-OH,γξ-OH)]T[ξPro(3ξ-OH,4ξ-Me)]; lactam 1-C; configuration not given here)
Comp6(a) Potency (solubility) ([1]; Poly 20 [5]/pluronic F68 [10]): 1130 µg/mL
Comp6(a) Potency (solubility) ([1]; Poly 80 [5]): 1000 µg/mL
Comp6(a) Potency (solubility) ([1]; Poly 80 [10]): 4400 µg/mL
Comp6(a) Potency (solubility) ([1]; Poly 80 [15]): 7200 µg/mL
Comp6(a) Potency (solubility) ([1]; Poly 80 [20]/sodium taurodeoxycholate [20]): 43120 µg/mL
Comp6(a) Potency (solubility) ([1]; Poly 80 [25]): 13200 µg/mL
Comp6(a) Potency (solubility) ([1]; Sur None): <100 µg/mL
Comp6(a) Potency (solubility) ([1]; ethoxylated castor oil (cremophor EL) [25]): 11000 µg/mL
% Related Substances ([2]; 6(a) Potency 1, Poly 80(25), Cit(1.9), Man(50), 0 wks): 3.22%
% Related Substances ([2]; 6(a) Potency 1, Poly 80(25), Cit(1.9), Man(50), 2 wks): 10.24%
% Related Substances ([2]; 6(a) Potency 1, Poly 80(25), Cit(1.9), Man(50), 4 wks): 12.16%
% Related Substances ([2]; 6(a) Potency 1, Poly 80(25), Cit(9.6), Man(50), 0 wks): 3.36%
% Related Substances ([2]; 6(a) Potency 1, Poly 80(25), Cit(9.6), Man(50), 2 wks): 11.74%
% Related Substances ([2]; 6(a) Potency 1, Poly 80(25), Cit(9.6), Man(50), 4 wks): 18.63%
% Related Substances ([2]; 6(a) Potency 1, Poly 80(25), Cit(19.2), Man(50), 0 wks): 3.37%
% Related Substances ([2]; 6(a) Potency 1, Poly 80(25), Cit(19.2), Man(50), 2 wks): 17.29%
% Related Substances ([2]; 6(a) Potency 1, Poly 80(25), Cit(19.2), Man(50), 4 wks): 22.61%
% Related Substances ([2]; 6(a) Potency 5, Poly 80(12.5), no B, Lac(10), Man(50), 0 wks): 6.42%
% Related Substances ([2]; 6(a) Potency 5, Poly 80(12.5), no B, Lac(10), Man(50), 2 wks): 6.98%
% Related Substances ([2]; 6(a) Potency 5, Poly 80(12.5), no B, Lac(10), Man(50), 4 wks): 6.85%
% Related Substances ([2]; 6(a) Potency 8, Poly 80 (20), no B, Lac(10), Man(50), 0 wks): 5.99%
% Related Substances ([2]; 6(a) Potency 8, Poly 80 (20), no B, Lac(10), Man(50), 2 wks): 6.16%
% Related Substances ([2]; 6(a) Potency 8, Poly 80 (20), no B, Lac(10), Man(50), 4 wks): 5.74%
% Related Substances ([2]; 6(a) Potency 10, Poly 80(25), Cit(9.6), Suc(5), Man(50), 0 wks): 3.70%
% Related Substances ([2]; 6(a) Potency 10, Poly 80(25), Cit(9.6), Suc(5), Man(50), 2 wks): 5.60%
% Related Substances ([2]; 6(a) Potency 10, Poly 80(25), Cit(9.6), Suc(5), Man(50), 4 wks): 6.01%
% Related Substances ([2]; 6(a) Potency 10, Poly 80(25), Cit(9.6), Suc(10), Man(50), 0 wks): 3.77%
% Related Substances ([2]; 6(a) Potency 10, Poly 80(25), Cit(9.6), Suc(10), Man(50), 2 wks): 5.41%
% Related Substances ([2]; 6(a) Potency 10, Poly 80(25), Cit(9.6), Suc(10), Man(50), 4 wks): 5.88%
% Related Substances ([2]; 6(a) Potency 10, Poly 80(25), Cit(9.6), Suc(50), no BA, 0 wks): 3.60%
% Related Substances ([2]; 6(a) Potency 10, Poly 80(25), Cit(9.6), Suc(50), no BA, 2 wks): 5.4%
% Related Substances ([2]; 6(a) Potency 10, Poly 80(25), Cit(9.6), Suc(50), no BA, 4 wks): 6.01%
% Related Substances ([2]; 6(a) Potency 10, Poly 80(25), Cit(9.6), Tre(50), no BA, 0 wks): 3.73%
% Related Substances ([2]; 6(a) Potency 10, Poly 80(25), Cit(9.6), Tre(50), no BA, 2 wks): 4.83%
% Related Substances ([2]; 6(a) Potency 10, Poly 80(25), Cit(9.6), Tre(50), no BA, 4 wks): 6.19%
% Related Substances ([2]; 6(a) Potency 10, Poly 80(25), Tar(1.13), Fru(10), Man(50), 0 wks): 2.49%
% Related Substances ([2]; 6(a) Potency 10, Poly 80(25), Tar(1.13), Fru(10), Man(50), 4 wks): 2.42%
% Related Substances ([2]; 6(a) Potency 10, Poly 80(25), no B, Lac(10), Man(50) (first of two identical lines), 0 wks): 4.56%
% Related Substances ([2]; 6(a) Potency 10, Poly 80(25), no B, Lac(10), Man(50) (first of two identical lines), 2 wks): 4.51%
% Related Substances ([2]; 6(a) Potency 10, Poly 80(25), no B, Lac(10), Man(50) (first of two identical lines), 4 wks): 4.85%
% Related Substances ([2]; 6(a) Potency 10, Poly 80(25), no B, Lac(10), Man(50) (second of two identical lines), 0 wks): 4.06%
% Related Substances ([2]; 6(a) Potency 10, Poly 80(25), no B, Lac(10), Man(50) (second of two identical lines), 2 wks): 5.47%
% Related Substances ([2]; 6(a) Potency 10, Poly 80(25), no B, Lac(10), Man(50) (second of two identical lines), 4 wks): 5.17%
% Related Substances ([2]; 6(a) Potency 10, Poly 80(25), no B, PEG6000(10), Man(50), 0 wks): 4.13%
% Related Substances ([2]; 6(a) Potency 10, Poly 80(25), no B, PEG6000(10), Man(50), 2 wks): 4.47%
% Related Substances ([2]; 6(a) Potency 10, Poly 80(25), no B, PEG6000(10), Man(50), 4 wks): 8.11%
% Related Substances ([2]; 6(a) Potency 10, Poly 80(25), no B, PEG8000(10), Man(50), 0 wks): 3.97%
% Related Substances ([2]; 6(a) Potency 10, Poly 80(25), no B, PEG8000(10), Man(50), 2 wks): 4.23%
% Related Substances ([2]; 6(a) Potency 10, Poly 80(25), no B, PEG8000(10), Man(50), 4 wks): 6.73%
% Related Substances ([2]; 6(a) Potency 10, Poly 80(25), no B, Suc(10), Man(50), 0 wks): 4.26%
% Related Substances ([2]; 6(a) Potency 10, Poly 80(25), no B, Suc(10), Man(50), 2 wks): 4.82%
% Related Substances ([2]; 6(a) Potency 10, Poly 80(25), no B, Suc(10), Man(50), 4 wks): 4.49%
% Related Substances ([2]; 6(a) Potency 10, Poly 80(25), no B, no SA, Man(50), 0 wks): 3.98%
% Related Substances ([2]; 6(a) Potency 10, Poly 80(25), no B, no SA, Man(50), 2 wks): 4.85%
% Related Substances ([2]; 6(a) Potency 10, Poly 80(25), no B, no SA, Man(50), 4 wks): 5.45%

Reference: patent US7709444B2, “Echinocandin pharmaceutical formulations containing micelle-forming surfactants” (Pfizer Inc., priority 1999, dated 2010)
